Data: PubChem BioAssay AID2060500 (Molecular Pharmacology Branch, DTP, NCI, 2025)
Each block holds one molecule with its values, some of them ahead of it.

Tested on: 596521-263-R-J1-PDC complex spheroids, viability % of control
Test: Anticancer human tumor 596521-263-R-J1-PDC patient-derived soft tissue sarcoma cell line growth inhibition [GQUAD]
Settings: for IC50: curve of first compound; for viability, T/C: stronger effect = lower value
Excerpt: DNA G-quadruplex Stabilizer Agents in Combinations in Complex Spheroids
A high-throughput screen of multi-cell type tumor spheroids was designed to identify active combinations of DNA G-quadruplex stabilizer agents and targeted small molecules. Complex spheroids include a stromal component modeled by human endothelial cells (HUVEC) and fibroblasts modeled by human mesenchymal stem cells (MSCs). The concentration ranges selected for each drug and investigational agent were based upon clinically achievable concentrations if the clinical Cmax of the agent was known.
Compounds. The drugs and investigational agents: pidnarulex (CX-5461; NSC782164), APTO-253 (NSC789042), BRACO-19 (NSC847499), peposertib (NSC802822), ceralasertib (NSC780249), elimusertib (NSC800525), camonsertib (NSC841442), AZD-1390 (NSC803789), olaparib (NSC753686), talazoparib (NSC767125), ART-558 (NSC835418), sotorasib (NSC818433), MRTX-1133 (NSC836407), SN-38 (NSC673596), topotecan (NSC609699), etoposide (NSC141540), doxorubicin (NSC123127), gemcitabine (NSC613327), 5-fluorouracil (NSC19893), paclitaxel (NSC125973), vemurafenib (NSC761431), panobinostat (NSC761190), R-306465 (JNJ-16241199; NSC773264), adavosertib (NSC754352), TP-3654 (NSC805149), carboplatin (NSC241240), KSQ-4279 (NSC840948), and staurosporine (NSC755774) were obtained from the National Cancer Institute (NCI) Developmental Therapeutics Program Chemical Repository (34). The FDA-approved anticancer drug set is available from the NCI Developmental Therapeutics Program. […] The stock solutions were prepared in dimethyl sulfoxide (DMSO, Sigma-Aldrich, St. Louis, MO, cat. D2650) at 800-fold the tested concentration and stored at -70 degrees C prior to their use. All drugs and investigational agents were tested over a range starting from a high concentration at or near the clinical Cmax and decreasing in half-log increments. If the clinical Cmax for an agent had not been determined, the highest concentration tested was 10 microM.
2.3 Cell Culture. All cells were maintained in an incubator at 37 degrees C and 5% CO2 with 95% humidity. The PDC lines were cultured according to standard operating procedures established by the NCI PDMR. All PDCs were thawed and cultured in Matrigel-coated flasks prepared with a working solution of 1X Ham's F-12 nutrient mix, without supplementation (Invitrogen, cat. 11765054), 100 U/mL penicillin-streptomycin (Invitrogen, cat. 15140122), and 2.5% Matrigel (Corning Inc., cat. 354248) for the first three passages. The 857933-349-R-J2-PDC line was cultured in 6C/Colon 1B media, which includes advanced DMEM/F-12 (Thermo Fisher Scientific, cat. 12634028), 10 mM HEPES (Thermo Fisher Scientific, cat. 15630080), 1X GlutaMAX supplement (Thermo Fisher Scientific, cat. 35050061), 0.1 mg/mL primocin (InvivoGen, cat. ant-pm-2), 10% defined fetal bovine serum, heat inactivated (HyClone Laboratories Inc., cat. SH30070.03HI), 50% L-WRN conditioned media (ATCC, cat. CRL-3276), 1.25 mM N-Acetyl-L-cysteine (Sigma-Aldrich, cat. A9165), 10 mM nicotinamide (Sigma-Aldrich, cat. N0636), 1X B-27 supplement (Thermo Fisher Scientific, cat. 17504044), 1X N-2 supplement (Thermo Fisher Scientific, cat. 17502048), 10 microM Y-27632 dihydrochloride (Tocris Bioscience, cat. 1254), and 50 ng/mL human EGF recombinant protein (Thermo Fisher Scientific, cat. PHG0311). The 485176-168-R4-J1-PDC line was cultured in Panc media, which includes all 6C/Colon 1B media components plus 100 ng/mL human FGF-10 (Thermo Fisher Scientific, cat. 100-26), 500 nM SB-431542 (Selleckchem, cat. S1067), and gastrin (Tocris, cat. 3006).
[…]

[1] = second compound 0.0316 µM, first compound 0.0316 µM
[2] = second compound 0.0316 µM, first compound 0.1 µM
[3] = second compound 0.0316 µM, first compound 0.316 µM
[4] = second compound 0.0316 µM, first compound 1 µM
[5] = second compound 0.0316 µM, first compound 3.16 µM
[6] = second compound 0.0316 µM, first compound 10 µM
[7] = second compound 0.1 µM, first compound 0.0316 µM
[8] = second compound 0.1 µM, first compound 0.1 µM
[9] = second compound 0.1 µM, first compound 0.316 µM
[10] = second compound 0.1 µM, first compound 1 µM
[11] = second compound 0.1 µM, first compound 3.16 µM
[12] = second compound 0.1 µM, first compound 10 µM
[13] = second compound 0.316 µM, first compound 0.0316 µM
[14] = second compound 0.316 µM, first compound 0.1 µM
[15] = second compound 0.316 µM, first compound 0.316 µM
[16] = second compound 0.316 µM, first compound 1 µM
[17] = second compound 0.316 µM, first compound 3.16 µM
[18] = second compound 0.316 µM, first compound 10 µM
[19] = second compound 1 µM, first compound 0.0316 µM
[20] = second compound 1 µM, first compound 0.1 µM
[21] = second compound 1 µM, first compound 0.316 µM
[22] = second compound 1 µM, first compound 1 µM
[23] = second compound 1 µM, first compound 3.16 µM
[24] = second compound 1 µM, first compound 10 µM
[25] = second compound 3.16 µM, first compound 0.0316 µM
[26] = second compound 3.16 µM, first compound 0.1 µM
[27] = second compound 3.16 µM, first compound 0.316 µM
[28] = second compound 3.16 µM, first compound 1 µM
[29] = second compound 3.16 µM, first compound 3.16 µM
[30] = second compound 3.16 µM, first compound 10 µM
[31] = second compound 10 µM, first compound 0.0316 µM
[32] = second compound 10 µM, first compound 0.1 µM
[33] = second compound 10 µM, first compound 0.316 µM
[34] = second compound 10 µM, first compound 1 µM
[35] = second compound 10 µM, first compound 3.16 µM
[36] = second compound 10 µM, first compound 10 µM
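Also: spheroids exposed to drugs for 7 days before viability reading.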

Compound: O=c1[nH]cc(F)c(=O)[nH]1 + CN(C)c1ccc(Nc2c3ccc(NC(=O)CCN4CCCC4)cc3nc3cc(NC(=O)CCN4CCCC4)ccc23)cc1
- IC50 (second compound 0.0316 µM): > 10 µM
- IC50 (second compound 0.1 µM): > 10 µM
- IC50 (second compound 0.316 µM): > 10 µM
- IC50 (second compound 1 µM): > 10 µM
- IC50 (second compound 3.16 µM): > 10 µM
- IC50 (second compound 10 µM): > 10 µM
- viability, T/C [1]: 111%
- viability, T/C [2]: 118%
- viability, T/C [3]: 94.2%
- viability, T/C [4]: 94.4%
- viability, T/C [5]: 109%
- viability, T/C [6]: 91.1%
- viability, T/C [7]: 102%
- viability, T/C [8]: 117%
- viability, T/C [9]: 105%
- viability, T/C [10]: 97%
- viability, T/C [11]: 110%
- viability, T/C [12]: 89.7%
- viability, T/C [13]: 107%
- viability, T/C [14]: 92.1%
- viability, T/C [15]: 95.4%
- viability, T/C [16]: 93.9%
- viability, T/C [17]: 95.4%
- viability, T/C [18]: 96.4%
- viability, T/C [19]: 98.9%
- viability, T/C [20]: 101%
- viability, T/C [21]: 102%
- viability, T/C [22]: 111%
- viability, T/C [23]: 105%
- viability, T/C [24]: 98.2%
- viability, T/C [25]: 89.4%
- viability, T/C [26]: 89.6%
- viability, T/C [27]: 103%
- viability, T/C [28]: 85.6%
- viability, T/C [29]: 110%
- viability, T/C [30]: 80%
- viability, T/C [31]: 66.5%
- viability, T/C [32]: 67.4%
- viability, T/C [33]: 63.1%
- viability, T/C [34]: 75.2%
- viability, T/C [35]: 68.4%
- viability, T/C [36]: 64.1%

- IC50 (second compound 0.0316 µM): > 10 µM
- IC50 (second compound 0.1 µM): > 10 µM
- IC50 (second compound 0.316 µM): > 10 µM
- IC50 (second compound 1 µM): > 10 µM
- IC50 (second compound 3.16 µM): > 10 µM
- IC50 (second compound 10 µM): < 0.0316 µM
Compound: COc1ncnc(C2CC2)c1-c1ncc2cnn(Cc3ccc(-c4nc(C(F)(F)F)cn4C(C)C)cc3)c2n1 + Cc1cnc(CNC(=O)c2c(=O)c3ccc(N4CCCN(C)CC4)nc3n3c2sc2ccccc23)cn1
- viability, T/C [1]: 90.2%
- viability, T/C [2]: 90.6%
- viability, T/C [3]: 78%
- viability, T/C [4]: 90.4%
- viability, T/C [5]: 86.9%
- viability, T/C [6]: 79%
- viability, T/C [7]: 84.4%
- viability, T/C [8]: 77.2%
- viability, T/C [9]: 74.7%
- viability, T/C [10]: 77.1%
- viability, T/C [11]: 85%
- viability, T/C [12]: 79.2%
- viability, T/C [13]: 72%
- viability, T/C [14]: 74.2%
- viability, T/C [15]: 67.9%
- viability, T/C [16]: 79.5%
- viability, T/C [17]: 70.2%
- viability, T/C [18]: 65.7%
- viability, T/C [19]: 62.8%
- viability, T/C [20]: 65%
- viability, T/C [21]: 65.1%
- viability, T/C [22]: 63.1%
- viability, T/C [23]: 64%
- viability, T/C [24]: 61.9%
- viability, T/C [25]: 53.1%
- viability, T/C [26]: 59.2%
- viability, T/C [27]: 51.6%
- viability, T/C [28]: 48.6%
- viability, T/C [29]: 59.8%
- viability, T/C [30]: 49.9%
- viability, T/C [31]: 44.6%
- viability, T/C [32]: 25.6%
- viability, T/C [33]: 41.5%
- viability, T/C [34]: 42.6%
- viability, T/C [35]: 40.7%
- viability, T/C [36]: 0.28%
